Reference: US10350210B2, “EGFR and ALK dual inhibitor” (PRECEDO PHARMACEUTICALS CO., LTD, priority 2015, dated 2019)

Legend:
BaF3-ALK-F1174L = experiment: Cell growth (Cell Titer-Glo viability), BaF3-ALK-F1174L; format: cell-based; conditions: Mus musculus; BaF3-ALK-F1174L (mutant ALK F1174L kinase), 72 hrs
From the text: (§1) By testing the effect of the novel kinase inhibitors on the proliferation of cancer cells, the selectivity of the compounds of the present disclosure in inhibiting the proliferation of cancer cells was further assessed. In this example, human non-small cell lung cancer cell NCI-H1975 (expressing EGFR L858R/T790M double mutant gene), human skin squamous carcinoma cell A431 (expressing wild-type EGFR gene), non-small cell lung cancer NCI-H3255 (expressing EGFR L858R mutant gene), non-small cell lung cancer cell NCI-H3122 (expressing ALK gene), human non-small cell lung cancer cell A549 (expressing wild-type EGFR gene), human non-small cell lung cancer cell NCI-H2122 (expressing wild-type EGFR gene), human non-small cell lung cancer cell NCI-H460 (expressing wild-type EGFR gene), human non-small cell lung cancer cell PC-9 (expressing EGFR delE746_A750 mutant gene), Chinese hamster ovary cell CHO (Cricetulus griseus, hamster, Chinese, ovary), Chinese hamster lung cell CHL, human non-small cell lung cancer cell HCC827 (expressing mutant EGFR del19 gene), human lung adenocarcinoma cell HCC4006 (expressing mutant EGFR del19 gene), human non-small cell lung cancer cell NCI-H2228 (expressing wild-type ALK gene), and mouse primary B cell BaF3 were used, and the above cells were all purchased from ATCC (US). In addition, mouse BaF3-TEL-ALK (stably expressing ALK kinase), mouse BaF3-ALK-F1174L (stably expressing mutant ALK F1174L kinase), mouse BaF3-NPM-ALK (stably expressing ALK kinase), mouse BaF3-TEL-EGFR (stably expressing EGFR kinase), mouse BaF3-TEL-EGFR-T790M (stably expressing EGFR T790M mutant kinase), mouse BaF3-FL-EGFR-Del19 (stably expressing EGFR delE746_A750 mutant kinase), mouse BaF3-TEL-EGFR-L858R (stably expressing EGFR L858R mutant kinase), mouse BaF3-FL-EGFR-T790M-L858R (stably expressing EGFR T790M/L858R mutant kinase), mouse BaF3-TEL-INSR (stably expressing INSR protein), mouse BaF3-TEL-IGF1R (stably expressing IGF1R Protein), mouse BaF3-EML4-ALK (stably expressing EML4-ALK Protein), mouse BaF3-TEL-JAK3 (stably expressing JAK3 kinase protein), mouse BaF3-TEL-CSF1R (stably expressing CSF1R protein), and mouse BaF3-TEL-ALK-F1196M (stably expressing ALK F1196M mutant kinase) were also used in this example. The above cell lines were all established by our laboratory via the following process: kinase proteins or protein domain sequences of human ALK, ALK F1174L, EGFR, EGFR T790M, EGFR delE746_A750, EGFR L858, EGFR T790M/L858R, INSR, IGF1R, EML4-ALK, JAK3, CSF1R, ALK F1196M were amplified respectively by PCR, and were respectively inserted into MSCV-Puro vector (Clontech) with N-terminal TEL fragments and/or NPM fragments and/or TPR fragments; the resultants were stably transfected into mouse BaF3 cells by the means of retrovirus, and the IL-3 growth factors were removed, and eventually the ALK, ALK F1174L, EGFR, EGFR T790M, EGFR delE746_A750, EGFR L858, EGFR T790M/L858R, INSR, IGF1R, EML4-ALK, JAK3, CSF1R, ALK F1196M-transferred protein dependent cell lines were obtained.
(§2) The number of viable cells was determined quantitatively by a microplate reader using Cell Titer-Glo® (Promega, US) chemiluminescence cell viability assay kit.

HCC827 = experiment: Growth of cancer cells (Cell Titer-Glo viability), HCC827; format: cell-based; conditions: Homo sapiens; HCC827 (mutant EGFR del19), 72 hrs
From the text: as §1, §2

A549 = experiment: Growth of cancer cells (Cell Titer-Glo viability), A549; format: cell-based; conditions: Homo sapiens; A549 (wild-type EGFR), 72 hrs
From the text: as §1, §2

BaF3-NPM-ALK = experiment: Cell growth (Cell Titer-Glo viability), BaF3-NPM-ALK; format: cell-based; conditions: Mus musculus; BaF3-NPM-ALK (stably expressing ALK kinase), 72 hrs
From the text: as §1, §2

NCI-H2228 = experiment: Growth of cancer cells (Cell Titer-Glo viability), NCI-H2228; format: cell-based; conditions: Homo sapiens; NCI-H2228 (wild-type ALK), 72 hrs
From the text: as §1, §2

A431 = experiment: Growth of cancer cells (Cell Titer-Glo viability), A431; format: cell-based; conditions: Homo sapiens, A-431; A431 (wild-type EGFR), 72 hrs; read-out: GI50
From the text: as §1, §2

NCI-H2122 = experiment: Growth of cancer cells (Cell Titer-Glo viability), NCI-H2122; format: cell-based; conditions: Homo sapiens; NCI-H2122 (wild-type EGFR), 72 hrs
From the text: as §1, §2

CHL = experiment: Cell growth (Cell Titer-Glo viability), CHL; format: cell-based, Chinese hamster; conditions: Cricetulus griseus; CHL Chinese hamster lung cell, 72 hrs; read-out: GI50
From the text: as §1, §2

NCI-H1975 = experiment: Growth of cancer cells (Cell Titer-Glo viability), NCI-H1975; format: cell-based; conditions: Homo sapiens; NCI-H1975 (EGFR L858R/T790M double mutant), 72 hrs
From the text: as §1, §2

CHO = experiment: Cell growth (Cell Titer-Glo viability), CHO; format: cell-based, Chinese hamster; conditions: Cricetulus griseus; CHO Chinese hamster ovary cell, 72 hrs; read-out: GI50
From the text: as §1, §2

PC-9 = experiment: Growth of cancer cells (Cell Titer-Glo viability), PC-9; format: cell-based; conditions: Homo sapiens; PC-9 (EGFR delE746_A750 mutant), 72 hrs
From the text: as §1, §2

BaF3-TEL-ALK = experiment: Cell growth (Cell Titer-Glo viability), BaF3-TEL-ALK; format: cell-based; conditions: Mus musculus; BaF3-TEL-ALK (stably expressing ALK kinase), 72 hrs
From the text: as §1, §2

NCI-H3122 = experiment: Growth of cancer cells (Cell Titer-Glo viability), NCI-H3122; format: cell-based; conditions: Homo sapiens; NCI-H3122 (expressing ALK gene), 72 hrs; read-out: GI50
From the text: as §1, §2

BaF3 = experiment: Cell growth (Cell Titer-Glo viability), BaF3; format: cell-based; conditions: BaF3 mouse primary B cell, 72 hrs
From the text: as §1, §2

BaF3-FL-EGFR-Del19 = experiment: Cell growth (Cell Titer-Glo viability), BaF3-FL-EGFR-Del19; format: cell-based; conditions: Mus musculus; BaF3-FL-EGFR-Del19 (EGFR delE746_A750 mutant kinase), 72 hrs
From the text: as §1, §2

BaF3-TEL-EGFR-T790M = experiment: Cell growth (Cell Titer-Glo viability), BaF3-TEL-EGFR-T790M; format: cell-based; conditions: Mus musculus; BaF3-TEL-EGFR-T790M (EGFR T790M mutant kinase), 72 hrs
From the text: as §1, §2

SMILES | GI50 (BaF3-ALK-F1174L) | GI50 (HCC827) | GI50 (A549) | GI50 (BaF3-NPM-ALK) | GI50 (NCI-H2228) | GI50 (A431) | GI50 (NCI-H2122) | GI50 (CHL) | GI50 (NCI-H1975) | GI50 (CHO) | GI50 (PC-9) | GI50 (BaF3-TEL-ALK) | GI50 (NCI-H3122) | GI50 (BaF3) | GI50 (BaF3-FL-EGFR-Del19) | GI50 (BaF3-TEL-EGFR-T790M)
C=CC(=O)Nc1cc(Nc2ncc(Cl)c(Nc3ccccc3S(=O)(=O)C(C)C)n2)c(OC)cc1N1CCOCC1 [Compound 7, N-(5-(5-chloro-4-(2-(isopropylsulfonyl)phenylamino)pyrimidin-2-ylamino)-4-methoxy-2-morpholinylphenyl) acrylamide] | 630 nM | 110 nM | 360 nM | 1 nM | 31 nM | 840 nM | 1030 nM | 9100 nM | 1200 nM | 2900 nM | 90 nM |  |  |  |  | 
C=CC(=O)Nc1cc(Nc2ncc(Cl)c(Nc3ccccc3S(=O)(=O)C(C)C)n2)c(OC)cc1N1CCN(C2CCCCC2)CC1 [Compound 15, N-(5-(5-chloro-4-(2-(isopropylsulfonyl)phenylamino)pyrimidin-2-ylamino)-2-(4-cyclohexylpiperazin-1-yl)-4-methoxyphenyl)acrylamide] |  | 38 nM | 390 nM | < 0.3 nM | 70 nM | 370 nM |  | 1400 nM | 77 nM | 170 nM | 36 nM | 7.5 nM | < 0.3 nM | 300 nM |  | 
C=CC(=O)Nc1cc(Nc2ncc(Cl)c(Nc3ccccc3S(=O)(=O)C(C)C)n2)c(OC)cc1N1CCN(CC2CC2)CC1 [Compound 14, N-(5-(5-chloro-4-(2-(isopropylsulfonyl)phenylamino)pyrimidin-2-ylamino)-2-(4-(cyclopropylmethyl)piperazin-1-yl)-4-methoxyphenyl)acrylamide] |  | 32 nM | 130 nM | < 0.3 nM | 28 nM | 350 nM | 4300 nM | 2000 nM | 100 nM | 300 nM |  |  | < 0.3 nM |  |  | 
C=CC(=O)Nc1cc(Nc2ncc(Cl)c(Nc3ccccc3S(=O)(=O)C(C)C)n2)c(OC)cc1N1CCNCC1 [Compound 4, N-(5-(5-chloro-4-(2-(isopropylsulfonyl)phenylamino)pyrimidin-2-ylamino)-4-methoxy-2-(piperazin-1-yl)phenyl) acrylamide] | 1500 nM | 16 nM | 2200 nM |  | 7.4 nM | 430 nM | 1300 nM | 4900 nM | 24 nM | > 10000 nM | 45 nM | 8 nM | 7 nM | 2000 nM | 15 nM | 62 nM
C=CC(=O)Nc1cc(Nc2ncc(Cl)c(Nc3ccccc3S(=O)(=O)C(C)C)n2)c(OC)cc1N1CCN(CCOC)CC1 [Compound 13, N-(5-(5-chloro-4-(2-(isopropylsulfonyl)phenylamino)pyrimidin-2-ylamino)-4-methoxy-2-(4-(2-methoxyethyl)piperazin-1-yl)phenyl)acrylamide] |  | 15 nM | 630 nM | < 0.3 nM | 5.9 nM | 470 nM |  | 3700 nM | 41 nM | 470 nM | 12 nM | > 10000 nM | < 0.3 nM | 1400 nM |  | 
